Laboratory results from patent US10807959B2, “WDR5-MLL1 inhibitors and modulators” (Vanderbilt University, priority 2018, dated 2020).

Tests used:
MV4:11 cells = assay: Cellular viability / anti-proliferative activity, CellTiter-Glo, 7 day protocol; format: cell-based, human; settings: 168 h; cellular proliferation of MV4:11 human cancer cell lines, 7 day
Protocol: Anti proliferative activity using MLL-harboring cell lines. MV4:11 cells are grown in RPMI-1640 media supplemented with 10% FBS and 1% penicillin/streptomycin. Viability assays are performed by dispensing […] into each well of an opaque 384-well plate and adding compounds at the indicated concentrations in a final volume of 32 μL and a final concentration of DMSO of 0.1% for all samples. After a set incubation period, 7 day protocol, the viability of cells in each well is assessed using the CellTiter-Glo assay (Promega), read on a GloMax 96 Microplane Luminometer (Promega). Serial dilutions of each cell type are included in all assays to generate standard curves and determine assay measurements are taken within the dynamic range of the instrument. GI50 values are calculated based on three biological replicates, each with three technical replicates. Data are expressed as mean plus/minus S.E.M.

WDR5 [1] = molecular target: T1, WDR5 (Homo sapiens (Human), UniProt P61964); assay: Fluorescence polarization anisotropy (FPA) competition assay, displacement of FITC-MLL or 10mer-Thr-FAM peptide; format: binding
Text: The assay is run in 384-well format and is read on a BioTek Cytation. […] Replicate values are fit to a 4-parameter fit in XLFit to generate a single IC50 value for each compound that is then converted to a Ki value. Experiments are repeated to generate a 2nd, independent Ki value; values from the two experiments are averaged to produce the reported Ki value for the compound.

WDR5 [2] = molecular target: T1, WDR5; assay: TR-FRET binding assay, displacement of 10mer-Thr-FAM probe from His-tagged WDR5; settings: Inhibition of WDR5 by TR-FRET assay
Protocol: The LanthaScreenTM Elite Tb-anti-HIS Antibody from ThermoFisher Scientific was used for this purpose. […] The ratio of the 520 and 495 signals are then utilized to generate a dose-response curve to calculate an IC50 value. […] WDR[…] tag protein is used at 2 nM.

[3] = Inhibition of WDR5 by FPA assay
[4] = Table C2, WDR5 WIN-site binding affinity, values not less than 1 nM (FPA)

Compound	GI50 (MV4:11 cells) [nM]	Ki (WDR5 [1]; [4]) [nM]	further results
Cc1cc(CNC(=O)c2cc(CNC3=NCCC3)cc(-c3ccc(F)cc3C)c2)ccc1Cl [Example 64, N-(4-Chloro-3-methylbenzyl)-5-(((3,4-dihydro-2H-pyrrol-5-yl)amino)methyl)-4′-fluoro-2′-methyl-[1,1′-biphenyl]-3-carboxamide]	280		
O=C(NCc1ccc(Cl)c(Cl)c1)c1cc(Cn2ccnc2)cc(-c2ccc(F)cc2Cl)c1 [Example 116, 5-((1H-Imidazol-1-yl)methyl)-2′-chloro-N-(3,4-dichlorobenzyl)-4′-fluoro-[1,1′-biphenyl]-3-carboxamide]	3800		
Cc1nc(F)ccc1-c1cc(Cn2ccnc2)cc(C(=O)NC(C2CC2)C2CC2)c1 [Example 133, 3-((1H-imidazol-1-yl)methyl)-N-(dicyclopropylmethyl)-5-(6-fluoro-2-methylpyridin-3-yl)benzamide]			Ki (WDR5 [1]; [3]): 3.5 nM; Ki (WDR5 [2]): 4.6 nM
Cc1ccnc(C(NC(=O)c2cc(Cn3ccnc3)cc(-c3ccc(F)nc3C)c2)C2CC2)c1 (centres unmarked) [Example 137, 3-((1H-Imidazol-1-yl)methyl)-N-(cyclopropyl(4-methylpyridin-2-yl)methyl)-5-(6-fluoro-2-methylpyridin-3-yl)benzamide]			Ki (WDR5 [1]; [3]): < 1 nM; Ki (WDR5 [2]): 2 nM
Cc1ccnc(C(NC(=O)c2cc(Cn3ccnc3)cc(-c3ccc(F)cc3Cl)n2)C2CC2)c1 (centres unmarked) [Example 150, 4-((1H-Imidazol-1-yl)methyl)-6-(2-chloro-4-fluorophenyl)-N-(cyclopropyl(4-methylpyridin-2-yl)methyl)picolinamide]			Ki (WDR5 [1]; [3]): 1.1 nM; Ki (WDR5 [2]): 5.71 nM
Cc1cccc(CNC(=O)c2cc(Cn3ccnc3)cc(-c3ccc(F)cc3Cl)n2)n1 [Example 151, 4-((1H-Imidazol-1-yl)methyl)-6-(2-chloro-4-fluorophenyl)-N-((6-methylpyridin-2-yl)methyl)picolinamide]			Ki (WDR5 [1]; [3]): 8.7 nM; Ki (WDR5 [2]): 32 nM
Cc1cc(F)ccc1-c1cc(Cn2ccnc2C)cc(C(=O)NCc2ccc(Cl)c(Cl)c2)n1 [Example 156, N-(3,4-dichlorobenzyl)-6-(4-fluoro-2-methylphenyl)-4-((2-methyl-1H-imidazol-1-yl)methyl)picolinamide]	630		
Cc1nc(F)ccc1-c1cc(Cn2ccnc2C)cc(C(=O)NCc2ccc(Cl)c(Cl)c2)n1 [Example 164, N-(3,4-dichlorobenzyl)-6′-fluoro-2′-methyl-4-((2-methyl-1H-imidazol-1-yl)methyl)-[2,3′-bipyridine]-6-carboxamide]	1100		
Cc1cnccc1-c1cc(Cn2ccnc2C)cc(C(=O)NCc2ccc(Cl)c(Cl)c2)n1 [Example 166, N-(3,4-Dichlorobenzyl)-3′-methyl-4-((2-methyl-1H-imidazol-1-yl)methyl)-[2,4′-bipyridine]-6-carboxamide]	240		
COc1cc(OC)cc(C(C)NC(=O)c2cc(CNC3=NCCC3)ccn2)c1 (centres unmarked) [Example C21, 4-(((3,4-dihydro-2H-pyrrol-5-yl)amino)methyl)-N-(1-(3,5-dimethoxyphenyl)ethyl)picolinamide]		33	
Cc1cc(CNC(=O)c2cc(CNC3=NCCC3)cc(-c3ccc(F)cc3C)n2)ccc1Cl [Example C23]		3.13	
COc1cc(CNC(=O)c2cc(CNC3=NCCC3)cc(-c3ccc(F)cc3C)n2)cc(OC)c1 [Example C24]		11.7	
COc1cc(CNC(=O)c2cc(CNC3=NCCC3)cc(-c3ccc(F)cc3C(F)(F)F)n2)cc(OC)c1 [Example C27]		1.58	
Cc1cnc(C(C)NC(=O)c2cc(CNC3=NCCC3)cc(-c3ccc(F)cc3C(F)(F)F)n2)cc1Cl (centres unmarked) [Example C32]		1.54	
COc1cc(OC)cc(C(C)NC(=O)c2ccnc(CNC3=NCCN3)c2)c1 (centres unmarked) [Example C34, 2-(((4,5-dihydro-1H-imidazol-2-yl)amino)methyl)-N-(1-(3,5-dimethoxyphenyl)ethyl)isonicotinamide]		32.5	
COc1cc(OC)cc(C(C)NC(=O)c2ccnc(CNC3=NCCC3)c2)c1 (centres unmarked) [Example C35, 2-(((3,4-dihydro-2H-pyrrol-5-yl)amino)methyl)-N-(1-(3,5-dimethoxyphenyl)ethyl)isonicotinamide]		44.1	
